US20260226034A1 (The Rockefeller University, priority 2023, published 2026)

target: NSP14 (Severe acute respiratory syndrome coronavirus 2, UniProt P0DTD1); assay: NSP14 MTase inhibition assay at 37° C. (MTase-Glo SAH detection); format: biochemical, SARS-CoV-2; details: 0.3 nM NSP14, 2.5 μM SAM, 2.5 μM GpppA RNA, 45 min at 37° C.; read-out: Nsp14 Mtase Inh. IC50

**Q.** Which IC50 does the source give for Cc1c(S(=O)(=O)c2ccc(C#N)cc2)cc(C(=O)NCc2cccc3cnn(C)c23)n1C [A.24] here?
**A.** 89 nM

**Q.** Cc1c(S(=O)(=O)c2ccc3[nH]ncc3c2)cc(C(=O)NC2CCN(c3ncc(F)cn3)CC2)n1C [A.35] was tested. Which IC50 did it give?
**A.** 0.56 nM

**Q.** Cc1c(S(=O)(=O)c2ccc3[nH]ncc3c2)cc(C(=O)NC2(CO)CCN(c3ncc(F)cn3)C2)n1C (single isomer, unassigned) [A.117, 4-((1H-indazol-5-yl)sulfonyl)-N-(1-(5-fluoropyrimidin-2-yl)-3-(hydroxymethyl)pyrrolidin-3-yl)-1,5-dimethyl-1H-pyrrole-2-carboxamide] was tested. Which IC50 did it give?
**A.** 2.8 nM

**Q.** Which IC50 does the source give for Cc1c(S(=O)(=O)c2ccc3[nH]ncc3c2)cc(C(=O)N[C@@H]2CCN(c3ncccc3C(F)(F)F)C2)n1C [A.80] here?
**A.** 1.5 nM

same assay, conditions: 37° C., 0.3 nM NSP14, 2.5 μM SAM, 2.5 μM GpppA RNA; read-out: Nsp14 Mtase Inh. IC50

**Q.** Cc1cc(S(=O)(=O)c2cc(C(=O)NCc3c(F)ccc4ncn(C5CC5)c34)n(C)c2C)cc2cn[nH]c12 [B.27] was tested. Which IC50 did it give?
**A.** 0.21 nM

**Q.** With O=C(NCc1c(F)ccc2ncn(C3CC3)c12)c1cc(S(=O)(=O)c2ccc3[nH]nc(F)c3c2)c2n1CCC2 [B.91] as the compound, how does the IC50 read?
**A.** 0.28 nM

**Q.** How did the IC50 turn out when Cc1c(S(=O)(=O)c2cccc(C#N)c2)cc(C(=O)NCc2cccc3ncn(C4CC4)c23)n1C [B.3] was run?
**A.** 5.3 nM

**Q.** How did the IC50 turn out when Cc1c(S(=O)(=O)c2ccc3[nH]ncc3c2)cc(C(=O)NCc2c(F)cccc2F)n1C [B.22] was run?
**A.** 0.23 nM

**Q.** Which IC50 does the source give for Cc1c(S(=O)(=O)c2ccc3[nH]ncc3c2)cc(C(=O)NCc2cccc3ncn(C4CC4)c23)n1C [B.1] here?
**A.** 0.38 nM

**Q.** How did the IC50 turn out when Cc1c(S(=O)(=O)c2ccc3[nH]ncc3c2)cc(C(=O)NCc2n[nH]c(=O)c3ccccc23)n1C [B.121] was run?
**A.** < 0.15 nM

**Q.** How did the IC50 turn out when Cc1c(S(=O)(=O)c2ccc3[nH]ncc3c2)cc(C(=O)NCc2c[nH]c(=O)c3cnccc23)n1C [B.130] was run?
**A.** < 0.15 nM
